{"source": "paper PMC3104677", "about": "(Molecular microbiology, 2009)", "molecular_target": "T1, NrpR (Methanococcus maripaludis, UniProt Q6LZL7)", "T1 sequence (Q6LZL7 1-536)": "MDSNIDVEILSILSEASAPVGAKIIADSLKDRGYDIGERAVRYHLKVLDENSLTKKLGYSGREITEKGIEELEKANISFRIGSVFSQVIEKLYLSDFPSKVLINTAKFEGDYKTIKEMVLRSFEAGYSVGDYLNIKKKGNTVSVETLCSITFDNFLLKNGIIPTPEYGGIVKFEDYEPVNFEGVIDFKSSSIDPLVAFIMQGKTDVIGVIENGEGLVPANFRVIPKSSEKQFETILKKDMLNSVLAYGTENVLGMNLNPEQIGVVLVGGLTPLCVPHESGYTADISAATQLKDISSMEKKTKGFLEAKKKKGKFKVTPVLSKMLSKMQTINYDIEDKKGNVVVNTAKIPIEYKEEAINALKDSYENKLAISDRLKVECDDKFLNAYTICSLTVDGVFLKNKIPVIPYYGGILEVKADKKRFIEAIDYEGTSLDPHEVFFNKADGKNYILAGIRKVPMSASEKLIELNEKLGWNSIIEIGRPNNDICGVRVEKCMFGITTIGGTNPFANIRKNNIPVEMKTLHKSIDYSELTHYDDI", "assay": "EMSA, inhibition of NrpR binding to […]-labelled glnK1 operator DNA", "conditions": "inducer ligand; wild type glnK1 operator region O1+O2; 0.1 and 0.4 mM 2OG", "data": [{"compound": "O=C(O)CCC(=O)C(=O)O", "note": "[2-oxoglutarate]", "values": [{"measurement": "EMSA, inhibition of NrpR binding to 32P-labelled glnK1 operator DNA", "result": "2OG indicates the nitrogen state of the cell and is the inducer ligand"}]}]}
